Data from article PMC11089505, “Structural Elucidation and Antiviral Activity of Covalent Cathepsin L Inhibitors” (Journal of Medicinal Chemistry, 2024).
Several values for one entry are separate records, joined by “and”; a condition that tells them apart may be missing. Equal values may be shown once.

System: SARS-CoV-2 Omicron variant BA.1 in Vero E6 cells
Test: microbe, parasite or virus in culture
Format: cell-based

Compound | reduction of quantity of viral RNA | EC50 (Severe acute respiratory syndrome coronavirus 2, Vero C1008, 24 h, read-out: EC50 (qRT-PCR)) [nM] | % RNA (qRT-PCR)
CCCC(NC(=O)C(CC(C)C)NC(=O)OCc1ccccc1)C(=O)C(=O)NCc1ccccn1 (stereo not drawn) [CI-XII, Benzyl N-[1-[[1.2-dioxo-1-(pyridin-2-ylmethylamino)hexan-3-yl]amino]-4-methyl-1-oxopentan-2-yl]carbamate] | more than 50% | < 100 | 
CCC(CC)COC(=O)[C@H](C)N[P@](=O)(OC[C@H]1O[C@@](C#N)(c2ccc3c(N)ncnn23)[C@H](O)[C@@H]1O)Oc1ccccc1 [Remdesivir] |  |  | 124.5% and 63.1%
